Measurements: patent publication US20080275028A1 (priority 2004, published 2008)

Target: T1, alpha7 nicotinic acetylcholine receptor (Rattus norvegicus, UniProt Q05941)
T1 construct: expressed in transfected cells
Assay: Functional FLIPR assay (calcium), alpha7 nAChR stably expressed in GH4C1 cells
Assay type: cell-based
Conditions: agonist, concentration range 0.001 to 30 microM
From the text: Rat GH4C1 cells were then transfected with the rat receptor, cloned and analyzed for functional alpha7 nicotinic receptor expression employing a FLIPR assay to measure changes in intracellular calcium concentrations.
The FLIPR system allows the measurements of real time Ca^2+-concentration changes in living cells using a Ca^2+ sensitive fluorescence dye (such as Fluo4). This instrument enables the screening for agonists and antagonists for alpha 7 nAChR channels stably expressed in GH4C1cells.
GH4C1 cells stably transfected with rat-alpha7-nAChR (see above) were used. These cells are poorly adherent and therefore pretreatment of flasks and plates with poly-D-lysine was carried out. Cells are grown in 150 cm^2 T-flasks, filled with 30 ml of medium at 37° C. and 5% CO2.
EC50 and IC50 values were calculated using the IDBS XLfit4.1 software package employing a sigmoidal concentration-response (variable slope) equation:
Y=Bottom+((Top-Bottom)/(1+((EC50/X) ̂ HillSlope))
The compounds were tested using the functional FLIPR primary screening assay employing the stable recombinant GH4C1 cell line expressing the alpha7 nAChR. Hits identified were validated further by generation of concentration-response curves.

T1 sequence (Q05941 23-502): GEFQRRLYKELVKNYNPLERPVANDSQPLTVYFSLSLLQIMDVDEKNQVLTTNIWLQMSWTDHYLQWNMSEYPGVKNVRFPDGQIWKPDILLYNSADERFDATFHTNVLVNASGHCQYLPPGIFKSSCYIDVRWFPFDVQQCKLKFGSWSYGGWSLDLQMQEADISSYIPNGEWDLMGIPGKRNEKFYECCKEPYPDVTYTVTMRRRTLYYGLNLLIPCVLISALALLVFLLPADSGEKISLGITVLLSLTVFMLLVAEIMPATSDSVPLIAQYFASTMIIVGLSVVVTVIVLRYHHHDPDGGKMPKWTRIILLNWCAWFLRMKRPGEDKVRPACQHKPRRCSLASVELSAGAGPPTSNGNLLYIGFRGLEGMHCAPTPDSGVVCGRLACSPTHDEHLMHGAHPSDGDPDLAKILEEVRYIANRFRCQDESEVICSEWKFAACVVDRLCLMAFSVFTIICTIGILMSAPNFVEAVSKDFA

Structure (SMILES): C[N+]1(C)CCN(c2ccccc2)CC1 [DMPP]
- EC50: 980 ± 470 nM
